Test results published in paper PMC11079868, “Synthesis of Novel Hydrazide–Hydrazone Compounds and In Vitro and In Silico Investigation of Their Biological Activities against AChE, BChE, and hCA I and II” (ACS Omega, 2024).
Read-outs that look alike come from different tables or passages of the source.

How the values were obtained:
Assay type in all cases: biochemical
hCA I = molecular target: T1, hCA I (Homo sapiens, UniProt P00915); assay: biochemical; conditions: for IC50: mean from at least three determinations
T1 construct: from tissue; host or cells: fresh human erythrocytes
From the text: (§1) In this study, hCA I and II were obtained from fresh human erythrocytes using affinity chromatography as previously described in the literature.[36],[37] AChE from Electrophorus electricus (electric eel) (C3389: Sigma-Aldrich), BChE from equine serum (C4290: Sigma-Aldrich), and the other chemicals (4-nitrophenyl acetate (N8130: Sigma-Aldrich), 5,5′-dithiobis(2-nitrobenzoic acid) (D218200: Sigma-Aldrich), acetylthiocholine iodide (A5771: Sigma-Aldrich), butyrylthiocholine iodide (B3253: Sigma-Aldrich)) were purchased from local representatives of well-known commercial companies. On the other hand, the absorbance rates of each compound were determined by a microplate spectrophotometer (Multiskan Go, Thermo Scientific).
(§2) In this study, we conducted hCA I and II activity assays using the Verpoorte method, as outlined in previous literature.[38] The inhibitory activities of all of the newly synthesized compounds were thoroughly tested. The inhibitory activity of each molecule was examined in triplicate at each concentration. Different concentrations were employed for all inhibitors tested in this study, respectively. The baseline activity in the control cuvette, without any inhibitory agent, was established as 100%.

hCA II = molecular target: T2, hCA II (Homo sapiens, UniProt P00918); assay: hCA II activity assay (Verpoorte esterase method); conditions: mean from at least three determinations
T2 construct: from tissue; host or cells: fresh human erythrocytes
From the text: as §1
as §2, with “100%. AZA was used as a positive control compound.” for “100%.”

AChE = molecular target: T3, AChE (Electrophorus electricus, UniProt O42275); assay: AChE activity assay (Ellman method); conditions: for IC50: mean from at least three determinations
T3 construct: purchased Sigma-Aldrich C3389
From the text: as §1
(§3) The evaluation of the inhibitory characteristics of all synthesized compounds against AChE and BChE was conducted using the widely recognized Ellman method,[41] as described in pertinent literature sources.[2],[14],[18]

BChE = molecular target: T4, BChE (Equus caballus, UniProt P81908); assay: BChE activity assay (Ellman method)
T4 construct: BChE from equine serum (C4290: Sigma-Aldrich); purchased Sigma-Aldrich C4290; host or cells: equine serum
From the text: as §1, §3

[1] = mean from at least three determinations, read-out: IC50 BChE
[2] = ratio of IC50 values vs neostigmine

T3 sequence (O42275 24-633): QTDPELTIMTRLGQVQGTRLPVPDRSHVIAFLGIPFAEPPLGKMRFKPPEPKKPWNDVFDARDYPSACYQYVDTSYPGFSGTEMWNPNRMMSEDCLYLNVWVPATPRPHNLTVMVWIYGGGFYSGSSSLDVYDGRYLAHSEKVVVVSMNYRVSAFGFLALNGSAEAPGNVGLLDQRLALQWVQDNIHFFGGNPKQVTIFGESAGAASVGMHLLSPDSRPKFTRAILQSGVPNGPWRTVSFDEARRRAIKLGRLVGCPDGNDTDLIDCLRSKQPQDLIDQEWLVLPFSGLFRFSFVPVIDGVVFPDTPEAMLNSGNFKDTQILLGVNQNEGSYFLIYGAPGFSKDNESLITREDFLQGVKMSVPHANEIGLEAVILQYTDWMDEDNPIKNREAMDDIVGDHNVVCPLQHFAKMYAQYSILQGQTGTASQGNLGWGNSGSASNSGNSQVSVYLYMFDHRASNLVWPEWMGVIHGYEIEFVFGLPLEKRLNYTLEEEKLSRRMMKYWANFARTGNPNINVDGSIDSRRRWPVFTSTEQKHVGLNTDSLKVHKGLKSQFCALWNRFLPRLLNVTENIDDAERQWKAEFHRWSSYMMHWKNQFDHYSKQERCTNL
T4 sequence (P81908 whole entry): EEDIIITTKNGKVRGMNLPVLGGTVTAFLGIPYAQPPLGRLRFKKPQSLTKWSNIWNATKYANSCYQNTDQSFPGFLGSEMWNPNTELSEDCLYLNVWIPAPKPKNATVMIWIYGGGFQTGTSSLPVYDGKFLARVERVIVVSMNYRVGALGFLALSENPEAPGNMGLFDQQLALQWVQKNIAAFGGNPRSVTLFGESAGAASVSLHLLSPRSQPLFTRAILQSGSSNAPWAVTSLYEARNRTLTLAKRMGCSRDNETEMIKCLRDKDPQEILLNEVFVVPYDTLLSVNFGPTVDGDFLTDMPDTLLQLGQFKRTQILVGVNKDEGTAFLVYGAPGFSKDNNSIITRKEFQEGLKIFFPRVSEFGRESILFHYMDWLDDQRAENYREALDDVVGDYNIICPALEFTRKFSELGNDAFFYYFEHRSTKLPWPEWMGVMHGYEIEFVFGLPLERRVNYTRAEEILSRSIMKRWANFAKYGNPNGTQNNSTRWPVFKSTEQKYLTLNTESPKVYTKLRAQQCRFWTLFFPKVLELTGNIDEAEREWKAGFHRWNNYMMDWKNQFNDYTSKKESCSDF
T1 sequence (P00915 whole entry): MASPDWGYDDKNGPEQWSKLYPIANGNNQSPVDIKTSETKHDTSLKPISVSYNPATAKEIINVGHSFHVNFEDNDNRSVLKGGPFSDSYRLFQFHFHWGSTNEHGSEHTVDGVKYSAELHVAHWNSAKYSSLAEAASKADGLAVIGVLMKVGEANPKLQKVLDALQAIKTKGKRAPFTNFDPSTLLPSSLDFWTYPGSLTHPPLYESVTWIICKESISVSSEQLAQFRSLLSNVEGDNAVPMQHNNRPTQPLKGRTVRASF

| Compound | IC50 (hCA I) [nM] | IC50 (hCA II) [nM] | IC50 (AChE) [nM] | IC50 (BChE; [1]) [nM] | inhibition of hCA I relative to AZA (hCA I; ratio of IC50 values vs AZA) [fold] | inhibition of AChE relative to neostigmine (AChE; [2]) | inhibition of AChE relative to rivastigmine (AChE; ratio of IC50 values vs rivastigmine) | inhibition of BChE relative to neostigmine (BChE; [2]) | inhibition of BChE relative to neostigmine (BChE; ratio vs neostigmine, Conclusions text) | IC50 (BChE) [nM] |
| --- | --- | --- | --- | --- | --- | --- | --- | --- | --- | --- |
| CN(C)c1ccc(C(=O)Oc2ccccc2C=O)cc1 [compound 1, 2-Formylphenyl 4-(Dimethylamino)benzoate] | 27.5 ± 0.51 | 13.7 ± 0.27 | 51.1 ± 0.88 | 43.5 ± 0.75 |  |  |  |  |  |  |
| CN(C)c1ccc(C(=O)Oc2ccc(C=O)cc2)cc1 [compound 2, 4-Formylphenyl 4-(Dimethylamino)benzoate] | 25.6 ± 0.47 | 12.2 ± 0.21 | 48.5 ± 0.81 | 41.5 ± 0.68 |  |  |  |  |  |  |
| COc1cccc(C=O)c1OC(=O)c1ccc(N(C)C)cc1 [compound 3, 2-Formyl-6-methoxyphenyl 4-(Dimethylamino)benzoate] | 39.6 ± 0.72 | 16.1 ± 0.33 | 59.5 ± 0.96 | 51.3 ± 0.89 |  |  |  |  |  |  |
| COc1ccc(C=O)cc1OC(=O)c1ccc(N(C)C)cc1 [compound 4, 5-Formyl-2-methoxyphenyl 4-(Dimethylamino)benzoate] | 38.1 ± 0.65 | 15.4 ± 0.32 | 60.2 ± 1.02 | 53.1 ± 0.91 |  |  |  |  |  |  |
| COc1cc(C=O)ccc1OC(=O)c1ccc(N(C)C)cc1 [compound 5, 4-Formyl-2-methoxyphenyl 4-(Dimethylamino)benzoate] | 39.1 ± 0.71 | 20.4 ± 0.35 | 61.4 ± 1.12 | 54.7 ± 0.91 |  |  |  |  |  |  |
| CN(C)c1ccc(C(=O)Oc2ccc3ccccc3c2C=O)cc1 [compound 6, 1-Formylnaphthalen-2-yl 4-(Dimethylamino)benzoate] | 45.1 ± 0.82 | 24.7 ± 0.43 | 28.2 ± 0.52 | 25.2 ± 0.42 |  |  |  |  |  |  |
| CN(C)c1ccc(C(=O)Oc2ccccc2C=NNC(=O)c2cccnc2)cc1 [compound 7, 2-((2-Nicotinoylhydrazono)methyl)phenyl 4-(Dimethylamino)benzoate] | 29.1 ± 0.53 | 8.03 ± 0.14 | 48.6 ± 0.79 | 45.3 ± 0.82 |  |  |  |  |  |  |
| CN(C)c1ccc(C(=O)Oc2ccc(C=NNC(=O)c3cccnc3)cc2)cc1 [compound 8, 4-((2-Nicotinoylhydrazono)methyl)phenyl 4-(Dimethylamino)benzoate] | 21.4 ± 0.39 | 7.12 ± 0.12 | 46.3 ± 0.75 | 43.4 ± 0.83 | 13 |  |  |  |  |  |
| COc1cccc(C=NNC(=O)c2cccnc2)c1OC(=O)c1ccc(N(C)C)cc1 [compound 9, 2-Methoxy-6-((2-nicotinoylhydrazono)methyl)phenyl 4-(Dimethylamino)benzoate] | 35.7 ± 0.74 | 12.5 ± 0.21 | 43.2 ± 0.81 | 39.6 ± 0.71 |  |  |  |  |  |  |
| COc1ccc(C=NNC(=O)c2cccnc2)cc1OC(=O)c1ccc(N(C)C)cc1 [compound 10, 2-Methoxy-5-((2-nicotinoylhydrazono)methyl)phenyl 4-(Dimethylamino)benzoate] | 32.5 ± 0.73 | 11.8 ± 0.22 | 29.6 ± 0.53 | 29.7 ± 0.54 |  |  |  |  |  |  |
| COc1cc(C=NNC(=O)c2cccnc2)ccc1OC(=O)c1ccc(N(C)C)cc1 [compound 11, 2-Methoxy-4-((2-nicotinoylhydrazono)methyl)phenyl 4-(Dimethylamino)benzoate] | 32.2 ± 0.72 | 11.6 ± 0.22 | 28.6 ± 0.52 | 28.6 ± 0.5 |  |  |  |  |  |  |
| CN(C)c1ccc(C(=O)Oc2ccc3ccccc3c2C=NNC(=O)c2cccnc2)cc1 [compound 12, 1-((2-Nicotinoylhydrazono)methyl)naphthalen-2-yl 4-(Dimethylamino)benzoate] | 42.7 ± 0.81 | 23.5 ± 0.41 | 21.4 ± 0.38 | 18.4 ± 0.36 |  | more than 6 fold | approximately 3 fold | approximately 5 fold | approximately 4 times |  |
| CN(C)C(=O)Oc1cccc([N+](C)(C)C)c1 [neostigmine, reference compound] |  |  |  |  |  |  |  |  |  | 84 ± 1.07 |
